# Results published in PubChem BioAssay (NCI).
#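 Five concentrations, 48 hours, 96-well plates. Abbreviation: GI50, concentration required for 50% inhibition of growth. TGI: concentration producing complete growth inhibition.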
# Columns and labels:
# Test in all cases: DTP human tumour cell line panel, 48 h
# HCT-15 colon = tested on: HCT-15 colon
# IGROV1 ovarian = tested on: IGROV1 ovarian
# KM12 colon = tested on: KM12 colon
# CCRF-CEM leukemia = tested on: CCRF-CEM leukemia
# CAKI-1 renal = tested on: CAKI-1 renal
# BT-549 breast = tested on: BT-549 breast
# SNB-75 CNS = tested on: SNB-75 CNS
# ACHN renal = tested on: ACHN renal
# SK-MEL-2 melanoma = tested on: SK-MEL-2 melanoma
# OVCAR-5 ovarian = tested on: OVCAR-5 ovarian
Structure (SMILES),TGI (HCT-15 colon) [µM],TGI (IGROV1 ovarian) [µM],TGI (KM12 colon) [µM],TGI (CCRF-CEM leukemia) [µM],TGI (CAKI-1 renal) [µM],TGI (BT-549 breast) [µM],TGI (SNB-75 CNS) [µM],TGI (ACHN renal) [µM],TGI (SK-MEL-2 melanoma) [µM],TGI (OVCAR-5 ovarian) [µM],GI50 (HCT-15 colon) [µM],GI50 (IGROV1 ovarian) [µM],GI50 (KM12 colon) [µM],GI50 (CCRF-CEM leukemia) [µM],GI50 (BT-549 breast) [µM],GI50 (ACHN renal) [µM],GI50 (OVCAR-5 ovarian) [µM],GI50 (CAKI-1 renal) [µM],GI50 (SNB-75 CNS) [µM],GI50 (SK-MEL-2 melanoma) [µM]
Cc1ccccc1C(=O)N/N=C/c1ccc(Sc2nccn2C)c([N+](=O)[O-])c1,> 100,> 100,> 100,> 100,> 100,> 100,> 100,> 100,> 100,> 100,,,,,,,,,,
CN(C)CC(CC1=C(CC(CN(C)C)N(C)C)CCC1)N(C)C (configuration not stated),> 100,> 100,> 100,> 100,> 100,,> 100,,> 100,> 100,,,,,,,,,,
CCOC(=O)C(NC(=O)c1ccco1)(Nc1nc2ccc(OCC)cc2s1)C(F)(F)F (configuration not stated),> 100,,98.3,> 100,45.8,> 100,70.7,82.3,> 100,> 100,,,,,,,,,,
CNC(=O)OCc1c(CO)nc(SC)n1C,> 100,> 100,> 100,> 100,> 100,,> 100,,> 100,> 100,,,,,,,,,,
CC1=NN(c2cccc(Cl)c2)C2(SCC(=O)N2c2nc3ccccc3s2)/C1=C\c1cccs1 (configuration not stated),54.8,> 100,94.6,,99,37.1,47.9,> 100,41.8,56.7,,,,,,,,,,
CCN(CC(=O)O)C(=O)c1cccnc1,> 100,> 100,> 100,,> 100,> 100,> 100,> 100,> 100,> 100,,,,,,,,,,
C(=N\NC1=NCCN1)/c1ccc(-c2cn3cc(/C=N/NC4=NCCN4)ccc3n2)cc1,> 100,> 64.5,> 100,25.1,49.4,52.9,> 100,> 100,> 100,> 100,,,,,,,,,,
Fc1ccc(C(OCCN2CCC3CCC(C2)N3C/C=C/c2ccco2)c2ccc(F)cc2)cc1 (configuration not stated),18.6,21,30.6,0.419,27.9,25.7,30,25.3,26.2,,,,,,,,,,,
CC(=O)C1=C(C)N(c2ccc(C)cc2)C2(O)C=CC(=O)C3C(=O)N(c4ccccc4)C(=O)C132 (configuration not stated),> 100,22.3,74.2,> 100,45.4,39.8,50.5,40.4,28.8,> 100,,,,,,,,,,
CCC(C)C1=C(OC(C)=O)[N+]2([O-])Oc3ccc(-c4c(OC(C)=O)c(OC(C)=O)c(-c5ccc(OC(C)=O)cc5)c(OC(C)=O)c4OC(C)=O)cc3OC2(C(C)CC)C(=O)N1OC(C)=O (configuration not stated),> 50,34.4,> 50,39.3,> 50,,42.3,> 50,43.2,> 50,,,,,,,,,,
Cc1nn(-c2ccccc2)c(C)c1/C=N/N=C1\SCC(=O)N1c1ccccc1,63.6,93.9,94.7,> 100,44.9,43,55,34.4,58.4,> 100,,,,,,,,,,
COc1ccc2c(c1)[nH]c1c(/C=C/c3ccccc3)nccc12,34.7,> 100,41.2,> 100,52,29.9,32.3,28.4,33.2,30.5,,,,,,,,,,
NC(=O)c1c(NC(=O)c2ccccn2)sc2c1CCC(=O)C2,> 100,> 100,> 100,> 100,,> 100,,> 100,,> 100,2.63,3.24,3.26,2.02,2.18,2.62,3.05,,,
COc1ccc(C(=O)/C=C/c2cccc([N+](=O)[O-])c2)c(OC)c1,2.61,,7.65,4.79,> 50,2.99,> 50,,> 50,> 50,0.916,,1.61,1.39,1.12,,1.56,1.98,1.61,12.4
O=C(O)C1C2CCC(O2)C1C(=O)Nc1cccc2cccnc12 (configuration not stated),> 100,> 100,> 100,,> 100,> 100,> 100,> 100,> 100,> 100,,,,,,,,,,
O=C(c1cccs1)N(C(=S)OC12CC3CC(CC(C3)C1)C2)c1ccccc1,> 100,,> 100,52.1,> 100,> 100,> 100,> 100,39.3,> 100,,,,,,,,,,
O=c1cccccc1[O-].O=c1cccccc1[O-].[O]=[U+2]=[O],> 100,50.9,,,56.4,,,48,,,,,,,,,,,,
C[C@H](CCC(=O)O)[C@H]1CC[C@@]2(C)[C@@H]3C(=O)C[C@H]4C(C)(C)[C@@H](O)CC[C@]4(C)[C@H]3C(=O)C[C@]12C,> 100,> 100,> 100,> 100,> 100,> 100,> 100,> 100,> 100,> 100,,,,,,,,,,
Clc1cc2c(cc1Cl)CC(NCCN1CCCC1)CC2 (configuration not stated),26.5,29,32.3,> 100,30.2,28.8,,31.8,34.9,29.6,,,,,,,,,,
